The nature of data set [1]: Intrinsic dissolution rate of compound III. Format: physicochemical. As to conditions: physiologically relevant pH range above pH 4.
The test system of data set [2] is patients with schizophrenia on stable antipsychotic treatment. Description: Multinational, randomised, double-blind, placebo-controlled, parallel group clinical trial of compound III, 12 weeks of treatment. The data set is classed as in vivo, human. As for the experimental part:
Regarding reducing the exacerbations of symptoms characterizing relapse, including suicidality, the clinical trial disclosed below was designed to show the efficacy of compound III in improvement of cognitive impairment in patients with schizophrenia as compared to placebo. All patients were on stable antipsychotic treatment (see Table 8 in FIGS. 6A-6C). The study was a multinational, multicentre, randomised, double-blind, placebo-controlled, parallel group trial.
Compound III (10, 25 and 50 mg) and matching placebo were supplied as film-coated tablets (formulation 1).
In total, 516 patients with schizophrenia on stable antipsychotic treatment (Table 8 in FIGS. 6A-6C) as described below were randomized into this trial. […]
The primary safety endpoints are as follows: • Occurrence of adverse events (AEs)/serious adverse events (including the abnormalities of physical examination, vital signs, electrocardiogram test and laboratory tests) • Occurrence of protocol-specified adverse events of special interest • Dramatic worsening of disease state as assessed by PANSS • Suicidality as assessed by Columbia Suicidal Severity Rating Scale (C-SSRS) […]

[3] abbreviates: patients with schizophrenia receiving antipsychotic therapy.

In the case of `O=c1[nH]c(Cc2ccccn2)nc2c1cnn2C1CCOCC1` [compound III], the intrinsic dissolution rate result in data set [1] is reported as “low”. Also, the “psychiatric serious adverse events (SAEs): hospitalization for disease worsening (schizophrenia, psychotic disorder) and suicidality leading to hospitalization” value in data set [2] (any arm dosed with compound III (10, 25, 50, 100 mg qd), 12 weeks, treated set, 8/8 (100%) of these SAEs in placebo arm) is recorded as “none”. Moreover, in data set [2] (setting [3]), the “change in intensity and occurrence of suicidal ideation compared to placebo” value is “decrease”; the “change in psychiatric serious adverse events (hospitalization for serious worsening of schizophrenia symptoms) compared to placebo” value is given as “statistically significant, clinically meaningful decrease”.

For the origin of these results see patent US20210130362A1, “MEDICAL USE OF COMPOUND III” (Boehringer Ingelheim International GmbH, priority 2017, published 2021).
